Values joined by “and” are separate entries in the source; they are usually repeats but may differ in a detail not shown here. Identical values can stand only once. Inconclusive results and toxic doses are left out.
System: P388 leukemia ip, CD2F1 mice, survival T/C
Assay: NCI In Vivo Anticancer Drug Screen. Data for tumor model P388 Leukemia (intraperitoneal) in CD2F1 (CDF1) mice
Conditions: endpoint: median survival time, higher = longer survival
Summary of the method: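 Mice carrying the transplanted tumor received test compound or vehicle. Survival was recorded in each group, and the value is the treated-group measurement divided by that of the vehicle-treated control group.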

[1] = dose: 100.0 mg/kg/injection, schedule: Q01DX009 (ip), vehicle: saline with Tween-80
[2] = dose: 100.0 mg/kg/injection, schedule: Q04DX003 (ip), vehicle: saline with Tween-80
[3] = dose: 200.0 mg/kg/injection, schedule: Q01DX009 (ip), vehicle: saline with Tween-80
[4] = dose: 200.0 mg/kg/injection, schedule: Q04DX003 (ip), vehicle: saline with Tween-80
[5] = dose: 25.0 mg/kg/injection, schedule: Q01DX009 (ip), vehicle: other
[6] = dose: 50.0 mg/kg/injection, schedule: Q01DX009 (ip), vehicle: other
[7] = dose: 100.0 mg/kg/injection, schedule: Q01DX009 (ip), vehicle: other
[8] = dose: 100.0 mg/kg/injection, schedule: Q04DX003 (ip), vehicle: saline
[9] = dose: 200.0 mg/kg/injection, schedule: Q04DX003 (ip), vehicle: saline
[10] = dose: 50.0 mg/kg/injection, schedule: Q01DX009 (ip), vehicle: saline with Tween-80
[11] = dose: 12.5 mg/kg/injection, schedule: Q01DX009 (ip), vehicle: distilled water + Tween-80
[12] = dose: 25.0 mg/kg/injection, schedule: Q01DX009 (ip), vehicle: distilled water + Tween-80
[13] = dose: 50.0 mg/kg/injection, schedule: Q01DX009 (ip), vehicle: distilled water + Tween-80
[14] = dose: 100.0 mg/kg/injection, schedule: Q01DX009 (ip), vehicle: distilled water + Tween-80
[15] = dose: 200.0 mg/kg/injection, schedule: Q01DX009 (ip), vehicle: distilled water + Tween-80

With `CC(=O)Oc1ccc[nH]c1=O` the T/C [1] was 104 % of control, the T/C [2] was 113 % of control and the T/C [3] was 118 % of control. For the same compound, the T/C [4] was 104 % of control, the T/C (dose: 300.0 mg/kg/injection, schedule: Q01DX009 (ip), vehicle: saline) was 155 % of control and the T/C (dose: 400.0 mg/kg/injection, schedule: Q01DX009 (ip), vehicle: saline) was 158 % of control. The T/C (dose: 400.0 mg/kg/injection, schedule: Q04DX003 (ip), vehicle: saline with Tween-80) was 109 % of control, the T/C (dose: 500.0 mg/kg/injection, schedule: Q01DX009 (ip), vehicle: saline) was 87 % of control and 91 % of control and the T/C (dose: 600.0 mg/kg/injection, schedule: Q01DX009 (ip), vehicle: saline sonified) was 115 % of control. For the same compound, the T/C (dose: 600.0 mg/kg/injection, schedule: Q01DX009 (ip), vehicle: saline with Tween-80) was 172 % of control and the T/C (dose: 600.0 mg/kg/injection, schedule: Q01DX009 (ip), vehicle: saline) was 110 % of control.
With `Cc1cc2c(oc(=O)c3cc(C)sc32)s1` the T/C (dose: 50.0 mg/kg/injection, schedule: Q01DX005 (ip), vehicle: Klucel (hydroxypropylcellulose) (HPC)) was 99 % of control, the T/C (dose: 100.0 mg/kg/injection, schedule: Q01DX005 (ip), vehicle: Klucel (hydroxypropylcellulose) (HPC)) was 103 % of control and the T/C (dose: 200.0 mg/kg/injection, schedule: Q01DX005 (ip), vehicle: Klucel (hydroxypropylcellulose) (HPC)) was 97 % of control.
`CCCC[As](CCCC)SCC1OC(OC(C)=O)C(OC(C)=O)C(OC(C)=O)C1OC(C)=O` (stereo not drawn) was tested, and the T/C (dose: 50.0 mg/kg/injection, schedule: Q01DX009 (ip), vehicle: Klucel (hydroxypropylcellulose) (HPC)) was 113 % of control and the T/C (dose: 100.0 mg/kg/injection, schedule: Q01DX009 (ip), vehicle: Klucel (hydroxypropylcellulose) (HPC)) was 92 % of control.
For `C1CC2CC1C13OC1C1(CC1)C1OC213` (stereo not drawn), the T/C (dose: 100.0 mg/kg/injection, schedule: Q01DX001 (ip), vehicle: Klucel (hydroxypropylcellulose) (HPC)) was 106 % of control and 123 % of control, the T/C (dose: 200.0 mg/kg/injection, schedule: Q01DX001 (ip), vehicle: Klucel (hydroxypropylcellulose) (HPC)) was 109 % of control and the T/C (dose: 400.0 mg/kg/injection, schedule: Q01DX001 (ip), vehicle: Klucel (hydroxypropylcellulose) (HPC)) was 157 % of control.
`OCc1c(CO)c(-c2ccc(Cl)cc2)n2c1CCC2` was tested, and the T/C (dose: 12.5 mg/kg/injection, schedule: Q01DX005 (ip), vehicle: distilled water + Tween-80) was 120 % of control, the T/C (dose: 25.0 mg/kg/injection, schedule: Q01DX005 (ip), vehicle: distilled water + Tween-80) was 111 % of control and 120 % of control and the T/C (dose: 50.0 mg/kg/injection, schedule: Q01DX005 (ip), vehicle: distilled water + Tween-80) was 112 % of control. The T/C (dose: 100.0 mg/kg/injection, schedule: Q01DX005 (ip), vehicle: distilled water + Tween-80) was 156 % of control, the T/C (dose: 200.0 mg/kg/injection, schedule: Q01DX005 (ip), vehicle: distilled water + Tween-80) was 186 % of control and the T/C (dose: 400.0 mg/kg/injection, schedule: Q01DX005 (ip), vehicle: distilled water + Tween-80) was 157 % of control.
For `NC(=O)C1c2ccccc2C=Cc2ccccc21`, the T/C (dose: 50.0 mg/kg/injection, schedule: Q01DX005 (ip), vehicle: saline with Tween-80) was 93 % of control, the T/C (dose: 100.0 mg/kg/injection, schedule: Q01DX005 (ip), vehicle: saline with Tween-80) was 90 % of control and the T/C (dose: 200.0 mg/kg/injection, schedule: Q01DX005 (ip), vehicle: saline with Tween-80) was 93 % of control.
For `COc1ccc2nc3cc(Cl)ccc3c(Nc3cccc(NC(C)=O)c3)c2n1`, the T/C (dose: 6.25 mg/kg/injection, schedule: Q01DX009 (ip), vehicle: other) was 108 % of control, the T/C (dose: 12.5 mg/kg/injection, schedule: Q01DX009 (ip), vehicle: other) was 102 % of control and the T/C [5] was 102 % of control. For the same compound, the T/C [6] was 98 % of control and the T/C [7] was 99 % of control.
With `O=C(O)c1ccc(COc2ccc([N+](=O)[O-])cc2Cl)cc1` the T/C [8] was 100 % of control and the T/C [9] was 99 % of control.
With `c1ccc2c(c1)OCCN1CCNC21` (stereo not drawn) the T/C [8] was 100 % of control, the T/C [9] was 102 % of control and the T/C (dose: 400.0 mg/kg/injection, schedule: Q04DX003 (ip), vehicle: saline) was 101 % of control.
For `O=S(=O)(O)O.[Fe]`, the T/C (dose: 12.5 mg/kg/injection, schedule: Q01DX009 (ip), vehicle: saline with Tween-80) was 95 % of control, the T/C (dose: 25.0 mg/kg/injection, schedule: Q01DX009 (ip), vehicle: saline with Tween-80) was 95 % of control and the T/C [10] was 86 % of control.
`O=C1CSC(c2ccc(F)cc2)N1c1nncs1` (stereo not drawn) was tested, and the T/C (dose: 60.0 mg/kg/injection, schedule: Q01DX005 (ip), vehicle: saline with Tween-80) was 99 % of control, the T/C (dose: 120.0 mg/kg/injection, schedule: Q01DX005 (ip), vehicle: saline with Tween-80) was 97 % of control and the T/C (dose: 240.0 mg/kg/injection, schedule: Q01DX005 (ip), vehicle: saline with Tween-80) was 101 % of control.
With `O=C(CBr)c1cc2c(cc1I)OCO2` the T/C (dose: 6.25 mg/kg/injection, schedule: Q01DX001 (ip), vehicle: saline with Tween-80) was 104 % of control, the T/C (dose: 12.5 mg/kg/injection, schedule: Q01DX001 (ip), vehicle: saline with Tween-80) was 105 % of control and the T/C (dose: 25.0 mg/kg/injection, schedule: Q01DX001 (ip), vehicle: saline with Tween-80) was 99 % of control and 101 % of control. The T/C (dose: 100.0 mg/kg/injection, schedule: Q01DX001 (ip), vehicle: saline with Tween-80) was 100 % of control.
`CC[C@H]1C[C@H]2CN(CCc3c([nH]c4ccccc34)[C@@](C(=O)OC)(c3cc4c(cc3OC)N(C=O)[C@H]3[C@@](O)(C(=O)OC)[C@H](OC(C)=O)[C@]5(CC)C=CCN6CC[C@]43[C@@H]65)C2)C1` was tested, and the T/C (dose: 0.5 mg/kg/injection, schedule: Q01DX001 (ip), vehicle: water) was 155 % of control, the T/C (dose: 1.0 mg/kg/injection, schedule: Q01DX001 (ip), vehicle: water) was 156 % of control and 174 % of control and the T/C (dose: 2.0 mg/kg/injection, schedule: Q01DX001 (ip), vehicle: water) was 180 % of control. The T/C (dose: 4.0 mg/kg/injection, schedule: Q01DX001 (ip), vehicle: water) was 90 % of control.
In the case of `NS(=O)(=O)c1cc2c(cc1Cl)NC(CCC(=O)O)=NS2(=O)=O`, the T/C [11] is reported as 93 % of control, the T/C [12] is reported as 102 % of control and the T/C [5] is reported as 92 % of control. For the same compound, the T/C [13] was 98 % of control, the T/C [6] was 90 % of control and the T/C [14] was 102 % of control. For the same compound, the T/C [7] was 90 % of control, the T/C [15] was 102 % of control and the T/C (dose: 400.0 mg/kg/injection, schedule: Q01DX009 (ip), vehicle: distilled water + Tween-80) was 98 % of control. For the same compound, the T/C (dose: 400.0 mg/kg/injection, schedule: Q01DX009 (ip), vehicle: other) was 97 % of control.
With `Cc1ccc(NC(=O)Nc2nccs2)cc1` the T/C [11] was 101 % of control, the T/C [12] was 99 % of control and the T/C [13] was 90 % of control. For the same compound, the T/C [14] was 99 % of control and the T/C [15] was 105 % of control.
With `COC1/C=C\C=C(/C)C(=O)NC2=CC(=O)C(N)=C(CC(C)CC(OC)C(O)C(C)C=C(C)C1OC(N)=O)C2=O` (stereo not drawn) the T/C (dose: 0.75 mg/kg/injection, schedule: Q01DX009 (ip), vehicle: saline with Tween-80) was 103 % of control, the T/C (dose: 1.5 mg/kg/injection, schedule: Q01DX009 (ip), vehicle: saline with Tween-80) was 105 % of control and the T/C (dose: 3.0 mg/kg/injection, schedule: Q01DX009 (ip), vehicle: saline with Tween-80) was 111 % of control. The T/C (dose: 6.0 mg/kg/injection, schedule: Q01DX009 (ip), vehicle: saline with Tween-80) was 87 % of control.
`Nc1nc(N)nc(N)n1` (tested in a mixture with another compound) was tested, and the T/C [10] was 98 % of control, the T/C [1] was 92 % of control and the T/C [3] was 88 % of control.
For `O=C1c2ccc(Cl)cc2OCCC1CN1CCCCC1` (stereo not drawn), the T/C [8] was 100 % of control and the T/C [9] was 103 % of control.
In the case of `COC(=O)C1=C(C2=C(C(=O)OC)CCC2)CCC1`, the T/C (dose: 100.0 mg/kg/injection, schedule: Q04DX002 (ip), vehicle: saline with Tween-80) is reported as 93 % of control, the T/C (dose: 200.0 mg/kg/injection, schedule: Q04DX002 (ip), vehicle: saline with Tween-80) is reported as 97 % of control and the T/C (dose: 400.0 mg/kg/injection, schedule: Q04DX002 (ip), vehicle: saline with Tween-80) is reported as 100 % of control.
In the case of `N=C(N)SCCC(=O)Nc1ccccc1`, the T/C [2] is reported as 106 % of control and the T/C [4] is reported as 106 % of control.
With `N=C(N)c1ccc(OCCCCOc2ccc(N)cc2)cc1` the T/C (dose: 60.0 mg/kg/injection, schedule: Q01DX005 (ip), vehicle: Klucel (hydroxypropylcellulose) (HPC)) was 97 % of control and the T/C (dose: 120.0 mg/kg/injection, schedule: Q01DX005 (ip), vehicle: Klucel (hydroxypropylcellulose) (HPC)) was 101 % of control.
